# Ends that are not written are not given here.
# Columns and labels:
# [1] = tested on: Akt Ser473 phosphorylation; assay: Western blot of Akt Ser473 phosphorylation in JJN-3 cells; assay type: cell-based; details: 6 μM ATX-101, 4, 8, 24 h
# PACT = assay: Western blot of PACT protein levels in HaCaT cells; assay type: cell-based, human; details: 12 μM ATX-101 + 2 μg/ml polyIC, 4 h
# Experimental: Protein levels were corrected for loading differences (β-tubulin) and normalized to untreated control cells. […] Bar, 5 μm.
# The multiple myeloma cell lines JJN-3 (gift from J. Ball, University of Birmingham, United Kingdom) were grown in RPMI 1640 (Sigma-Aldrich, Schnelldorf, Germany) supplemented with 10% FCS, 2 mM glutamine (Sigma-Aldrich), 2.5 μg/ml amphotericin B (Sigma-Aldrich) and 100 μg/ml gentamicin (Invitrogen, Carlsbad, Calif., USA). HaCaT cells (spontaneously transformed keratinocytes) were cultured in DMEM (Sigma-Aldrich) containing FCS, glutamine, amphotericin B, and gentamicin. All cells were cultured at 37° C. in a humidified atmosphere of 5% CO2.
# Mononucleated cells were seeded and stimulated as described above. JJN-3 cells were treated with ATX-101 (6 μM) for 4 h. HaCaT cells were treated with ATX-101 (12 μM), polylC (2 μg/ml), and LPS (100 ng/ml) for 4 h. […] The proteins were visualized with the Odyssey infrared imaging system (LI-COR) and quantified using Odyssey Image Studio V2. […]
substance,measurement,setting,value
Ac-MDRWLVKWKKKRKIRRRRRRRRRRR [ATX-101],phosphorylation of Akt,[1],decreased
same,"PACT protein level, polyIC-stimulated HaCaT cells",PACT,further reduced the protein level of PACT

# Reference: patent US11246907B2, “Immunosuppressive agents and their use in therapy” (Norwegian University of Science and Technology, priority 2013, dated 2022)
